# Where two headings read alike, the source gives them in different places.
# Assays:
# [1] = test system: P. aeruginosa strain PAO1; test: MIC against PAO1 in Mueller-Hinton broth with 50% human plasma or human serum; type: cell-based, Pseudomonas aeruginosa
# Pseudomonas aeruginosa = test: microbe, parasite or virus in culture; type: cell-based; settings: for MIC: CAA without human serum
# Enterobacter cloacae = test: microbe, parasite or virus in culture; type: cell-based
# In short: (§1)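 Peptide MICs were determined by growth inhibition in CAA medium supplemented with human serum.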
# Escherichia coli = test: microbe, parasite or virus in culture; type: cell-based
# In short: as §1
# [2] = test system: Pseudomonas aeruginosa, Escherichia coli, Enterobacter cloacae, Klebsiella pneumoniae, and Acinetobacter baumannii; test: MIC against a range of Gram-negative organisms (statements covering several species); type: cell-based; settings: Tables 40-44 isolates
# In short: as §1
# M. smegmatis = test: 45 hr MIC against M. smegmatis (NTM), Mueller Hinton broth; type: cell-based, Mycobacterium smegmatis
# M. fortuitum = test: 45 hr MIC against M. fortuitum (NTM); type: cell-based, Mycobacterium fortuitum; settings: M. fortuitum subsp. Fortuitum da Costa Cruz. ATCC 6841
# M. avium = test: 45 hr MIC against M. avium (NTM); type: cell-based, Mycobacterium avium; settings: M. avium Chester ATCC 700898
# [3] = test system: P. aeruginosa strain CFS-1292; test: MIC in presence of divalent cations (calcium chloride, magnesium sulfate); type: cell-based, Pseudomonas aeruginosa
# Method: Next, Chp peptides were evaluated in the presence of different divalent cations. […]; (2) in the presence of 2 mM calcium chloride alone; (3) in the presence of 1 mM magnesium sulfate alone; and (4) in the presence of both 2 mM calcium chloride and 1 mM magnesium sulfate. […]
# [4] = test system: P. aeruginosa strain CFS-1292; test: MIC in presence of mouse, rat, rabbit and human serum ([…] each); type: cell-based, Pseudomonas aeruginosa; settings: P. aeruginosa CFS-1292
# Method: The activity of several Chp peptides against P. aeruginosa strain CFS-1292 in animal serum was evaluated. […] Rat, mouse, and rabbit serum were all obtained from pooled gender samples.
# [5] = test system: Mycobacterium tuberculosis strains
# Method: MIC values for various Chp peptides were determined using the CLSI method for broth microdilution in 96-well microtiter format.
# Next, MIC values for various Chp peptides were determined using the CLSI method above for broth microdilution in 96-well microtiter format for two different Mycobacterium tuberculosis strains. The MIC was determined as explained above for the NTM strains.
# Klebsiella pneumoniae = test: microbe, parasite or virus in culture; type: cell-based; settings: CAA without human serum
# [6] = P. aeruginosa isolates (n per peptide in table)
# [7] = E. cloacae isolates (n per peptide in table)
# [8] = E. coli isolates (n per peptide in table)
sequence,measurement,setting,value
MARRYRLSRRRSRRLFSRTALRMHRRNRLRRIMRGGIRF [Chp4],MIC,[1],2 µg/mL
same,"Minimal inhibitory concentration, Human Serum",[1],2 µg/mL
same,MIC,"Pseudomonas aeruginosa; P. aeruginosa 453 (Human clinical isolate, HSS), RSC 1292",4 µg/mL
same,MIC,"Pseudomonas aeruginosa; P. aeruginosa (ATCC 14213, human hip wound), RSC 1111",4 µg/mL
same,MIC,"Pseudomonas aeruginosa; P. aeruginosa (ATCC 15152, abscess in middle ear), RSC 1110",4 µg/mL
same,MIC,"Pseudomonas aeruginosa; P. aeruginosa (ATCC 15692, infected wound), RSC 489",4 µg/mL
same,MIC,"Pseudomonas aeruginosa; P. aeruginosa (ATCC 15692, infected wound), RSC 1115",4 µg/mL
same,MIC,"Pseudomonas aeruginosa; P. aeruginosa (ATCC 17646, human liver abscess), RSC 1109",4 µg/mL
same,MIC,"Pseudomonas aeruginosa; P. aeruginosa (ATCC 19142, tracheobronchial secretion), RSC 1108",4 µg/mL
same,MIC,"Pseudomonas aeruginosa; P. aeruginosa (ATCC 25102, bacteriophage host), RSC 1114",4 µg/mL
same,MIC,"Pseudomonas aeruginosa; P. aeruginosa (ATCC 27853, MIC control strain), RSC 815",4 µg/mL
same,MIC,"Pseudomonas aeruginosa; P. aeruginosa (ATCC BAA-27, lab strain), RSC 1113",4 µg/mL
same,MIC,"Pseudomonas aeruginosa; P. aeruginosa (PAO1, alternate source, HER1018), RSC 490",4 µg/mL
same,MIC50,Pseudomonas aeruginosa; [6],1 µg/mL
same,MIC100,Pseudomonas aeruginosa; [6],1 µg/mL
same,MIC Range,Pseudomonas aeruginosa; [6],0.5 to 1 µg/mL
same,MIC50,Enterobacter cloacae; [7],0.5 µg/mL
same,MIC100,Enterobacter cloacae; [7],1 µg/mL
same,MIC Range,Enterobacter cloacae; [7],0.25 to 2 µg/mL
same,MIC,"Enterobacter cloacae; Enterobacter cloacae (ATCC 13047, MIC control strain), RSC 1240, CAA without human serum",4 µg/mL
same,MIC,"Enterobacter cloacae; Enterobacter cloacae ATCC 13047, CAA supplemented with human serum",1 µg/mL
same,MIC,"Escherichia coli; E. coli (ATCC 25922, MIC control strain), RSC 813, CAA without human serum",2 µg/mL
same,MIC,"Escherichia coli; E. coli (HM346, colon, Crohn's disease), RSC 1212, CAA without human serum",4 µg/mL
same,MIC50,Escherichia coli; [8],1 µg/mL
same,MIC100,Escherichia coli; [8],2 µg/mL
same,MIC Range,Escherichia coli; [8],0.5 to 4 µg/mL
same,MIC,"Escherichia coli; Escherichia coli ATCC 25922, CAA supplemented with human serum",0.5 µg/mL
same,"activity (good = MIC100 of ≤4) against all of P. aeruginosa, K. pneumoniae, A. baumannii, E. cloacae, and E. coli",[2],good activity
same,45 hr MIC,"M. smegmatis; M. smegmatis MC^2 155, Run #1",4 µg/mL
same,45 hr MIC,"M. smegmatis; M. smegmatis MC^2 155, Run #2",4 µg/mL
same,45 hr MIC,M. fortuitum,4 µg/mL
same,45 hr MIC,M. avium,1 µg/mL
same,MIC,[3]; CAA media + 1 mM MgSO4,0.5 µg/mL
same,MIC,[3]; CAA media + 2 mM CaCl2,1 µg/mL
same,MIC,[3]; CAA media + + 1 mM MgSO4,0.125 µg/mL
same,MIC,[3]; CAA media alone,0.5 µg/mL
same,MIC BALB/C Mouse Serum,[4]; BALB/C mouse serum […],32 µg/mL
same,MIC CAA,[4]; CAA,0.5 µg/mL
same,MIC New Zealand White Rabbit Serum,[4]; New Zealand White rabbit serum […],2 µg/mL
same,MIC Sprague Dawley Rat Serum,[4]; Sprague Dawley rat serum […],2 µg/mL
same,MIC Human Serum,[4]; human serum […],0.5 µg/mL
same,MIC,[5]; Mycobacterium tuberculosis (Zopf) Lehmann and Neumann ATCC 25177,16 µg/mL
same,MIC,[5]; Mycobacterium tuberculosis (Zopf) Lehmann and Neumann ATCC 35817,8 µg/mL
same,MIC,"Klebsiella pneumoniae; Klebsiella pneumoniae (ATCC 10031, MIC control strain), RSC 814",4 µg/mL
same,MIC,"Klebsiella pneumoniae; Klebsiella pneumoniae (g2-3 HM35K), RSC 1138",4 µg/mL
same,MIC,"Klebsiella pneumoniae; Klebsiella sp. (HM-44; colon, Crohn's disease), RSC 1139",4 µg/mL
same,MIC,"Klebsiella pneumoniae; Klebsiella spp. (HM-223; gut of Crohn's disease patient), RSC 1131",4 µg/mL
